Article PMC9415638, “Discovery of novel thiazolyl-pyrazolines as dual EGFR and VEGFR-2 inhibitors endowed with in vitro antitumor activity towards non-small lung cancer” (Journal of Enzyme Inhibition and Medicinal Chemistry, 2022)

Experiments:
A549 cells [1] = assay: Cell cycle analysis by flow cytometry (7AAD); format: cell-based, human; conditions: A549, 24 h; untreated controls 6.06% and 5.93%
Protocol: Figure 6. […] (A) Representative cell cycle distribution data are shown by flow cytometric analysis upon incubation with 0 (control), 2.5 or 5 μM of 10b or 10d or with 0 (control), 5 or 20 μM of gefitinib for 24 h. (B) Quantification of cell cycle distribution upon 24 h incubation with 10b or 10d.
(§1) DNA content was measured using 7-aminoactinmycin D (7AAD) (Biotium, Inc., Hayward, CA) staining and is commonly used for cell cycle phase analysis as previously described. Apoptosis was evaluated using the annexin V/propidium iodide (PI) staining kit (BioLegend, San Diego, CA) according to the manufacturer’s instructions and as previously described.

ROCK1 = ROCK1 (Homo sapiens, UniProt Q13464); assay: Kinase selectivity profiling, Z'-LYTE FRET
A549 cells migration = assay: Scratch wound healing assay; format: cell-based, human; conditions: 36 h, vs control
Protocol: Figure 5. Effect of compounds 10b and 10d on A549 cells migration. […] Representative images of scratched areas in confluent A549 cell layers.
A549 cells were seeded and incubated in 6-well cell culture plates till reaching confluence. Then, the confluent monolayers were scratched to form a “wound” using a sterile needle. The cells were treated with either vehicle as a control, 10b or 10d for 36 h. The images were recorded at 0 and 36 h to monitor the migration of cells into the wounded area using a light photomicroscope.

ABL1 = ABL1 (Homo sapiens, UniProt P00519); assay: Kinase selectivity profiling, Z'-LYTE FRET
A549 lung cancer cells = assay: Anti-proliferative MTT assay; conditions: Homo sapiens, A549, 24 h; for inhibition at 10 µM: read-out: % Growth inhibition ± SEM A549; for IC50: read-out: IC50 (µM) ± SEM A549
Protocol: (§2) The compounds were added at a single concentration (10 µM) and the cultures were incubated for 24 h, then the per cent growth inhibition (%GI) was calculated.
(§3) All chemicals used in this study were analytical or cell-culture grade.
(§4) Cytotoxicity was measured using the MTT assay. […] The medium was aspirated and 150 μL DMSO was added to solubilise MTT formazan crystals. The plates were then shaken, and the optical density was determined at 570 nm using an ELISA plate reader (Model 550, Bio-Rad, Hercules, CA). At least three independent experiments were performed.

EPHB2 = EPHB2 (Homo sapiens, UniProt P29323); assay: Kinase selectivity profiling, Z'-LYTE FRET
PKC = assay: Kinase selectivity profiling, Z'-LYTE FRET; conditions: read-out: IC50 (nM) PKC
SYK = SYK (Homo sapiens, UniProt P43405); assay: Kinase selectivity profiling, Z'-LYTE FRET
A549 cells [2] = assay: Annexin V-FITC/PI apoptosis assay; format: cell-based, human; conditions: A549, 5 μM, 24 h; control 5.4% (10b), […] (10d)
Protocol: Figure 7. Apoptotic effect of compounds 10b and 10d on A549 cells. (A) Representative cytograms of apoptotic A549 cells stimulated with 0 (control), 2.5 or 5 μM 10b or 10d, for 24 h. The lower-right (annexin V + PI- cells) and the upper-right (annexin V + PI + cells) quadrants show early and late apoptotic cells, and the lower-left (annexin V-PI- cells) and the upper-left ([…]) quadrants represent viable and necrotic cells, respectively. (B) Quantification of annexin V-positive apoptotic cells upon stimulation with 10b or 10d. The values are the means ± SEM of three different experiments. *p < 0.05 and *p < 0.01 indicate significant differences compared with control.
as §1

LCK = LCK (Homo sapiens, UniProt P06239); assay: Kinase selectivity profiling, Z'-LYTE FRET
H441 lung cancer cells = assay: Anti-proliferative MTT assay; conditions: Homo sapiens, NCI-H441, 24 h; for inhibition at 10 µM: read-out: % Growth inhibition ± SEM H441; for IC50: read-out: IC50 (µM) ± SEM H441, MTT, 24 h, n = 3
Protocol: as §2, §3, §4

Chain of ROCK1 (Q13464 whole entry): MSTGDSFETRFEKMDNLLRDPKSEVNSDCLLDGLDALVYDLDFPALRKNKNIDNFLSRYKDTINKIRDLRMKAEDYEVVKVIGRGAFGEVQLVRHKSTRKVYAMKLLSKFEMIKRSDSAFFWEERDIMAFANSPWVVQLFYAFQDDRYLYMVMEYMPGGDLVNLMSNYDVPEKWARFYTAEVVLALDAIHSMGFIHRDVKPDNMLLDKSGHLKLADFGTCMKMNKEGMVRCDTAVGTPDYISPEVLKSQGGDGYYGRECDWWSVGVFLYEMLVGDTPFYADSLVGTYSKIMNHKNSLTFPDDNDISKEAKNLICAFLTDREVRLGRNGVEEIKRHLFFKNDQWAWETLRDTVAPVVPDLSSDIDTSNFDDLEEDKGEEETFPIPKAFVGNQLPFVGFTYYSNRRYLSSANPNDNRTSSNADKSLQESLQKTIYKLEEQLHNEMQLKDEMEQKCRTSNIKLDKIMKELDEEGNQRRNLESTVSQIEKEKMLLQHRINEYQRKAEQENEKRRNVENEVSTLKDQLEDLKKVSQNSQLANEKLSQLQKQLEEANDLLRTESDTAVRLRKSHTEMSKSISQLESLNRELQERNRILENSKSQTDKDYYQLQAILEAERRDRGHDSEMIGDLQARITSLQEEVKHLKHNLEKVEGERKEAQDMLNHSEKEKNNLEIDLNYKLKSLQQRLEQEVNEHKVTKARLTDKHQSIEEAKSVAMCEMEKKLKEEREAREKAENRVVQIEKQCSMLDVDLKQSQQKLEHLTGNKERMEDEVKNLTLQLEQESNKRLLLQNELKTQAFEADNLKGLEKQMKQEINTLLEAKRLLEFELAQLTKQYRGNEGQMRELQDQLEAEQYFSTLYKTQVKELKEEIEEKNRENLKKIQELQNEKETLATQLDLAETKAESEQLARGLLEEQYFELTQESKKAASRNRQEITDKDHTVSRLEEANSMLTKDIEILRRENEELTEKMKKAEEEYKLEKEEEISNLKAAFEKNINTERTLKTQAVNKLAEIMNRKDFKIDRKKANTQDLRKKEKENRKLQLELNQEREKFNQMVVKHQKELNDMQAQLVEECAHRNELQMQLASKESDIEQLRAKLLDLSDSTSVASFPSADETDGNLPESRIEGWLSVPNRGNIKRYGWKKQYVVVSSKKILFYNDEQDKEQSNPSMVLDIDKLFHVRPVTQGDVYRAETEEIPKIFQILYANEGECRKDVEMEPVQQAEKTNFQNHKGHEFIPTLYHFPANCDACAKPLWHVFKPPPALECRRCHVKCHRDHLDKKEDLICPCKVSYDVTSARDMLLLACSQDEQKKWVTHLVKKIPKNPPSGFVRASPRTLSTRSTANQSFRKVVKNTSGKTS
Chain of ABL1 (P00519 whole entry): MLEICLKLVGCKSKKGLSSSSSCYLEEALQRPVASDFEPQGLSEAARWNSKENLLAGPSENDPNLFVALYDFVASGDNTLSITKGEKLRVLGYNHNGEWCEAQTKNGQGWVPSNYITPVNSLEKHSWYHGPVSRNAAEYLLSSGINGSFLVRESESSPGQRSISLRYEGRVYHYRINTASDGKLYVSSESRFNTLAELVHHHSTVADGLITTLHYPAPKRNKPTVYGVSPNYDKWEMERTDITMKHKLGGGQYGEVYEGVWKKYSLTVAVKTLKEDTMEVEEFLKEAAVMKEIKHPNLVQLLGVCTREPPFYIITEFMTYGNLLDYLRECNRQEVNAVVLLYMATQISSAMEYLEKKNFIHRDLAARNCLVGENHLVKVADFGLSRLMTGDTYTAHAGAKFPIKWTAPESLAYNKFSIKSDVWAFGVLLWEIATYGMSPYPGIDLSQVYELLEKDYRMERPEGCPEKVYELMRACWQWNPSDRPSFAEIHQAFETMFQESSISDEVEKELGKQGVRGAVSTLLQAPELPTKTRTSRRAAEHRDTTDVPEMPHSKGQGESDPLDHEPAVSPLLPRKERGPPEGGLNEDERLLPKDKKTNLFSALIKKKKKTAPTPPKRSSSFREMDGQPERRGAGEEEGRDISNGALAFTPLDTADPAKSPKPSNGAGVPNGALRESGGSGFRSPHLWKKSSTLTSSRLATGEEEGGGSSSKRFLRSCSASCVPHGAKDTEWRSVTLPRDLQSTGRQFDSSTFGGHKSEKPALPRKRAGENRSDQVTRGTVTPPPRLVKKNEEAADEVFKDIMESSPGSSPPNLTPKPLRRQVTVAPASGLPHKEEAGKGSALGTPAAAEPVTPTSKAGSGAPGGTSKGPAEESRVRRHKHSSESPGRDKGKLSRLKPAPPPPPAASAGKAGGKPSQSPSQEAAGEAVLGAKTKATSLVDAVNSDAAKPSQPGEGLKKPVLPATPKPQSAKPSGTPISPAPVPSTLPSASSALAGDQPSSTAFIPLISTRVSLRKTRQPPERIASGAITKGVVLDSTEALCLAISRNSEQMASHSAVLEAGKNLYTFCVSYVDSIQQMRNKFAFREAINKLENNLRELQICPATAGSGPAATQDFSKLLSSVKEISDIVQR
Chain of EPHB2 (P29323 19-1055): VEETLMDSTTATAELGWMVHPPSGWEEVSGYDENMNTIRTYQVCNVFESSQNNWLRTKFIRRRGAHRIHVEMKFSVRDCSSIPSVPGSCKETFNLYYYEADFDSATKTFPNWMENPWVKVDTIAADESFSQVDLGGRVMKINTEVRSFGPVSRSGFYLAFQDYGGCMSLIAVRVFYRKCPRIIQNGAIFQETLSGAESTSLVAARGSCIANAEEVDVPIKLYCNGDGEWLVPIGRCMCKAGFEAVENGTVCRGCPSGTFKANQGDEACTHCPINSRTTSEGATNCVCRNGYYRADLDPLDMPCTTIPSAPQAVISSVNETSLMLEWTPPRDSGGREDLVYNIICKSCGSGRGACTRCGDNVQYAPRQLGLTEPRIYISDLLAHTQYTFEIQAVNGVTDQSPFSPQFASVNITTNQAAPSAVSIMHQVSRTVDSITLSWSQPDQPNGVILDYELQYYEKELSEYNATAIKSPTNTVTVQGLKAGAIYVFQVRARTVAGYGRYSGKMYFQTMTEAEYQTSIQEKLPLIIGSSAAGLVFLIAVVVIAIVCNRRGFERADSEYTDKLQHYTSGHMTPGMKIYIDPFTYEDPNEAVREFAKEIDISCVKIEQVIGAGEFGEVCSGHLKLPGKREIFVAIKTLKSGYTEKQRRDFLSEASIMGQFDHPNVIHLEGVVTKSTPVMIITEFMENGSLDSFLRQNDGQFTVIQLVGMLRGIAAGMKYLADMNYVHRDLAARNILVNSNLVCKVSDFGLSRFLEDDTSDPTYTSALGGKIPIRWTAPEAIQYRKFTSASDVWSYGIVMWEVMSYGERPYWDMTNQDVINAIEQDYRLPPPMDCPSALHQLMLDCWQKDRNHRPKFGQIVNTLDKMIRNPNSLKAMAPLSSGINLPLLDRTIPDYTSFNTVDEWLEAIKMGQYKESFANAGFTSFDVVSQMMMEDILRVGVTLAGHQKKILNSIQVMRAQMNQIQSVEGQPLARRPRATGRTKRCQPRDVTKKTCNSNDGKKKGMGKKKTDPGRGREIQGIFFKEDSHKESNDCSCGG
Chain of LCK (P06239 whole entry): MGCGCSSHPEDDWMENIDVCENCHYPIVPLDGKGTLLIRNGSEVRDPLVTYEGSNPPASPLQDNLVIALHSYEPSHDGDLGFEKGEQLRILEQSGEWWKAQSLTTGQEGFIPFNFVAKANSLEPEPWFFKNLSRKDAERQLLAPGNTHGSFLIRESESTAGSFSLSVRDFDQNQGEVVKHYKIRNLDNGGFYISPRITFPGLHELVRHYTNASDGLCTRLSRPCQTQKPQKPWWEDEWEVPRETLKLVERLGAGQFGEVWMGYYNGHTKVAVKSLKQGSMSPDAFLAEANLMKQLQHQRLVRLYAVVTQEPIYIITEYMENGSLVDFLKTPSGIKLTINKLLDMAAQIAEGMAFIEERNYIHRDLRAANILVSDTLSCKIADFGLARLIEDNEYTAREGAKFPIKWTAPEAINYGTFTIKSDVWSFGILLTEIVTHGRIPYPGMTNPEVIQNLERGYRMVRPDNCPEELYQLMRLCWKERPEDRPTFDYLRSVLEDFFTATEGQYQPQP

IC50 (ROCK1) [µM]	IC50 (ABL1) [µM]	IC50 (A549 lung cancer cells) [µM]	IC50 (EPHB2) [µM]	IC50 (PKC) [nM]	IC50 (SYK) [µM]	IC50 (LCK) [µM]	IC50 (H441 lung cancer cells) [µM]	SMILES	cells at G2/M phase (A549 cells [1]) [%]	A549 cancer cell migration (A549 cells migration)	inhibition at 10 µM (A549 lung cancer cells) [%]	annexin V-positive apoptotic cells (A549 cells [2]) [%]	inhibition at 10 µM (H441 lung cancer cells) [%]
> 2	> 2	2.9 ± 0.2	> 2	> 2000	0.87 ± 0.031	> 2	3.8 ± 0.5	COc1ccc(C2CC(c3ccc(Cl)cc3Cl)=NN2c2nc(C)c(C(=O)Nc3ccccc3)s2)cc1OC (centres unmarked) [Compound 10d, 2-(3-(2,4-Dichlorophenyl)-5-(3,4-dimethoxyphenyl)-4,5-dihydro-1H-pyrazol-1-yl)-4-methyl-N-phenylthiazole-5-carboxamide]	33.92	effective in reducing the cancer cell migration	95.3 ± 5.3	28.5	89.2 ± 3.9
> 2	> 2	4.2 ± 0.8	> 2	> 2000	1.12 ± 0.022	> 2	4.8 ± 0.1	CCOC(=O)c1sc(N2N=C(c3ccc(Cl)cc3Cl)CC2c2ccc(OC)cc2)nc1C (centres unmarked) [Compound 10b, Ethyl-2-(3-(2,4-dichlorophenyl)-5-(4-methoxyphenyl)-4,5-dihydro-1H-pyrazol-1-yl)-4-methylthiazole-5-carboxylate]	29.2	effective in reducing the cancer cell migration	88.3 ± 4.9	16.5	79.1 ± 2.6
